In US20220402950A1, “SUBSTITUTED BENZIMIDAZOLES AS PAD4 INHIBITORS” (BRISTOL-MYERS SQUIBB COMPANY, priority 2018, published 2022) one finds IC50 data, which are given here for 21 compounds.

The assay concerns the target human PAD4 (hPAD4) (Homo sapiens, UniProt Q9UM07). The assay can be described thus: RFMS Human PAD4 Functional Assay. Format: biochemical. Particulars: 5 nM hPAD4, 250 μM BAEE. In short, it runs like this:
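RapidFire ESI-MS quantification, normalised to a modified-citrulline internal standard, after phenyl glyoxal (final 4 mM) derivatisation of the TCA-quenched reaction. The enzyme (10 nM) sat 30 min with compound (up to 50 μM final) before 500 μM BAEE (as added) started a 90 min, 37 °C reaction. Buffer: HEPES pH 7.5, 50 μM calcium, 5 μM TPEN.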

Where [1] appears, read: hPAD4 RFMS IC50, human PAD4, rapid-fire mass spectrum (RFMS) assay.
Setting [2] is: human PAD4, rapid-fire mass spectrum (RFMS) assay, read-out: hPAD4 RFMS IC50.

Where two headings read alike, the source gives them in different places.

Chain of human PAD4 (hPAD4) (Q9UM07 whole entry): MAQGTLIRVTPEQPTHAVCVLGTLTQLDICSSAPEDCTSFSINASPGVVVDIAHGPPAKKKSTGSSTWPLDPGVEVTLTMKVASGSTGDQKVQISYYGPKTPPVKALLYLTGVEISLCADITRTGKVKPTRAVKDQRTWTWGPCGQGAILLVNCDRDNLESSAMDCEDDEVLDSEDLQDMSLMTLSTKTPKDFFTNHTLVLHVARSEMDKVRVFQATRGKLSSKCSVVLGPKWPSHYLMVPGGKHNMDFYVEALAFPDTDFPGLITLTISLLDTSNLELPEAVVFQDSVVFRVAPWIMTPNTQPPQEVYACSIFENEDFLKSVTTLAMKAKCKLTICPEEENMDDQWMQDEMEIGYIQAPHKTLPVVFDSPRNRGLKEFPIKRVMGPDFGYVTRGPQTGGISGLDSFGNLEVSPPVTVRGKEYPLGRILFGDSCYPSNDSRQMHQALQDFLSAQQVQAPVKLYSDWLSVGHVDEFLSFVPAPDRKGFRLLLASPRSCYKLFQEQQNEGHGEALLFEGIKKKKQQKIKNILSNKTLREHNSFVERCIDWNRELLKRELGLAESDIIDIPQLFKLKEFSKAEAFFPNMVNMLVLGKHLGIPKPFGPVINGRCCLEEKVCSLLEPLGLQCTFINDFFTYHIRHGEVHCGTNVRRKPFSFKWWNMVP

One may read the IC50 as the concentration needed to halve the response being measured. Turning to `COc1cc(C(=O)N2C[C@H]3CC[C@@H]2[C@@H]3N)cc2nc(-c3cc4cccc(C5CCN(C(=O)NC6CC6)CC5)c4n3CC3CC3)n(C)c12` [Example 249, 4-(2-(5-((1R,4R,7R)-7-amino-2-azabicyclo[2.2.1]heptane-2-carbonyl)-7-methoxy-1-methyl-1H-benzo[d]imidazol-2-yl)-1-(cyclopropylmethyl)-1H-indol-7-yl)-N-cyclopropylpiperidine-1-carboxmaide], under setting [1], the IC50 was 8 nM.
In the case of `COc1cc(C(=O)N2C[C@H]3CC[C@@H]2[C@@H]3N)cc2nc(-c3cc4cccc(C5CN(S(C)(=O)=O)C5)c4n3CC3CC3)n(C)c12` [Example 64, (1R,4R,7R)-2-{2-[1-(cyclopropylmethyl)-7-(1-methanesulfonylazetidin-3-yl)-1H-indol-2-yl]-7-methoxy-1-methyl-1H-1,3-benzodiazole-5-carbonyl}-2-azabicyclo[2.2.1]heptan-7-amine], under setting [2], the IC50 was found to be 31 nM.
With `COc1cc(C(=O)N2C[C@H]3CC[C@@H]2[C@@H]3N)cc2nc(-c3cc4cccc(Nc5cnn(CC(F)F)c5)c4n3CC3CC3)n(C)c12` [Example 175, ((1R,4R,7R)-7-amino-2-azabicyclo[2.2.1]heptan-2-yl)(2-(1-(cyclopropylmethyl)-7-((1-(2,2-difluoroethyl)-1H-pyrazol-4-yl)amino)-1H-indol-2-yl)-7-methoxy-1-methyl-1H-benzo[d]imidazol-5-yl)methanone], the IC50 under setting [1] stood at 66 nM.
Under setting [1], `COc1cc(C(=O)N2C[C@H]3CC[C@@H]2[C@@H]3N)cc2nc(-c3cc4cccc(C5CCCN(C(C)=O)C5)c4n3CC3CC3)n(C)c12` (stereo partly drawn) [Example 38, 1-[3-(2-{5-[(1R,4R,7R)-7-amino-2-azabicyclo[2.2.1]heptane-2-carbonyl]-7-methoxy-1-methyl-1H-1,3-benzodiazol-2-yl}-1-(cyclopropylmethyl)-1H-indol-7-yl)piperidin-1-yl]ethan-1-one] displayed an IC50 of 73 nM.
Same read-out and setting: for `COc1cc(C(=O)N2C[C@H]3CC[C@@H]2[C@@H]3N)cc2nc(-c3cc4cccc(-c5cn[nH]c5)c4n3CC3CC3)n(C)c12` [Example 137, ((1R,4R,7R)-7-amino-2-azabicyclo[2.2.1]heptan-2-yl)(2-(1-(cyclopropylmethyl)-7-(1H-pyrazol-4-yl)-1H-indol-2-yl)-7-methoxy-1-methyl-1H-benzo[d]imidazol-5-yl)methanone] the value was 37 nM.
Still for that read-out and setting: for `COc1cc(C(=O)N2C[C@H]3CC[C@@H]2[C@@H]3N)cc2nc(-c3cc4cccc(C5CN(C(=O)CCC(=O)O)C5)c4n3CC3CC3)n(C)c12` [Example 68, 4-[3-(2-{5-[(1R,4R,7R)-7-amino-2-azabicyclo[2.2.1]heptane-2-carbonyl]-7-methoxy-1-methyl-1H-1,3-benzodiazol-2-yl}-1-(cyclopropylmethyl)-1H-indol-7-yl)azetidin-1-yl]-4-oxobutanoic acid] the value was 170 nM.
Under setting [1], `COc1cc(C(=O)N2C[C@H]3CC[C@@H]2[C@@H]3N)cc2nc(-c3cc4cccc(-c5ccc(C(N)=O)nc5)c4n3CC3CC3)n(C)c12` [Example 194, 5-(2-(5-((1R,4R,7R)-7-amino-2-azabicyclo[2.2.1]heptane-2-carbonyl)-7-methoxy-1-methyl-1H-benzo[d]imidazol-2-yl)-1-(cyclopropylmethyl)-1H-indol-7-yl)picolinamide] had an IC50 of 146 nM.
On to `COc1cc(C(=O)N2C[C@H]3CC[C@@H]2[C@@H]3N)cc2nc(-c3cc4cccc(-c5ccc(O)c(F)c5)c4n3CC3CC3)n(C)c12` [Example 90, 4-(2-{5-[(1R,4R,7R)-7-amino-2-azabicyclo[2.2.1]heptane-2-carbonyl]-7-methoxy-1-methyl-1H-1,3-benzodiazol-2-yl}-1-(cyclopropylmethyl)-1H-indol-7-yl)-2-fluorophenol], for which the IC50 under setting [1] was determined as 45 nM.
Turning to `COc1cc(C(=O)N2C[C@H]3CC[C@@H]2[C@@H]3N)cc2nc(-c3cc4cccc(-c5ccc(O)c(CO)c5)c4n3CC3CC3)n(C)c12` [Example 119, ((1R,4R,7R)-7-amino-2-azabicyclo[2.2.1]heptan-2-yl)(2-(1-(cyclopropylmethyl)-7-(4-hydroxy-3-(hydroxymethyl)phenyl)-1H-indol-2-yl)-7-methoxy-1-methyl-1H-benzo[d]imidazol-5-yl)methanone], under setting [2], the IC50 is 20 nM.
The same measure, in the same setting: for `COc1cc(C(=O)N2C[C@H]3CC[C@@H]2[C@@H]3N)cc2nc(-c3cc4cccc(C5CN(C(C)=O)C5)c4n3CC3CC3)n(C)c12` [Example 37, 1-(3-(2-(5-((1R,4R,7R)-7-amino-2-azabicyclo[2.2.1]heptane-2-carbonyl)-7-methoxy-1-methyl-1H-benzo[d]imidazol-2-yl)-1-(cyclopropylmethyl)-1H-indol-7-yl)azetidin-1-yl)ethan-1-one] the value was 26 nM.
`COc1cc(C(=O)N2C[C@H]3CC[C@@H]2[C@@H]3N)cc2nc(-c3cc4cccc(C5CC(C(=O)N6CC(F)C6)C5)c4n3CC3CC3)n(C)c12` (single isomer, unassigned; isomer 1) [Example 200] returned an IC50 under setting [1] of 21 nM.
Same read-out and setting: for `COc1cc(C(=O)N2C[C@H]3CC[C@@H]2[C@@H]3N)cc2nc(-c3cc4cccc(C5CCN(C(C)=O)CC5)c4n3CC3CC3)n(C)c12` [Example 15, 1-[4-(2-{5-[(1R,4R,7R)-7-amino-2-azabicyclo[2.2.1]heptane-2-carbonyl]-7-methoxy-1-methyl-1H-1,3-benzodiazol-2-yl}-1-(cyclopropylmethyl)-1H-indol-7-yl)piperidin-1-yl]ethan-1-one] the value was 20 nM; for `C#CCOCC(O)Cn1cc(-c2cccc3cc(-c4nc5cc(C(=O)N6CC7CCC6[C@@H]7N)cc(OC)c5n4C)n(CC4CC4)c23)cn1` (stereo partly drawn) [Example 128, ((7R)-7-amino-2-azabicyclo[2.2.1]heptan-2-yl)(2-(1-(cyclopropylmethyl)-7-(1-(2-hydroxy-3-(prop-2-yn-1-yloxy)propyl)-1H-pyrazol-4-yl)-1H-indol-2-yl)-7-methoxy-1-methyl-1H-benzo[d]imidazol-5-yl)methanone], 130 nM.
Regarding `COc1cc(C(=O)N2C[C@H]3CC[C@@H]2[C@@H]3N)cc2nc(-c3cc4cccc(-c5ccc6c(c5)CNC6=O)c4n3CC3CC3)n(C)c12` [Example 103, 5-(2-{5-[(1R,4R,7R)-7-amino-2-azabicyclo[2.2.1]heptane-2-carbonyl]-7-methoxy-1-methyl-1H-1,3-benzodiazol-2-yl}-1-(cyclopropylmethyl)-1H-indol-7-yl)-2,3-dihydro-1H-isoindol-1-one], the IC50 under setting [1] was found to be 25 nM.
`COc1cc(C(=O)N2C[C@H]3CC[C@@H]2[C@@H]3N)cc2nc(-c3cc4cccc(-c5ccc(C(=O)N(C)C)cc5)c4n3CC3CC3)n(C)c12` [Example 125, 4-(2-(5-((1R,4R,7R)-7-amino-2-azabicyclo[2.2.1]heptane-2-carbonyl)-7-methoxy-1-methyl-1H-benzo[d]imidazol-2-yl)-1-(cyclopropylmethyl)-1H-indol-7-yl)-N,N-dimethylbenzamide] showed an IC50 under setting [1] of 125 nM.
Still for that read-out and setting: the value for `COc1cc(C(=O)N2C[C@H]3CC[C@@H]2[C@@H]3N)cc2nc(-c3cc4cccc(-c5ccc6c(c5)CCC(=O)N6)c4n3CC3CC3)n(C)c12` [Example 99, 6-(2-{5-[(1R,4R,7R)-7-amino-2-azabicyclo[2.2.1]heptane-2-carbonyl]-7-methoxy-1-methyl-1H-1,3-benzodiazol-2-yl}-1-(cyclopropylmethyl)-1H-indol-7-yl)-1,2,3,4-tetrahydroquinolin-2-one] was 38 nM.
As to `COc1cc(C(=O)N2C[C@H]3CC[C@@H]2[C@@H]3N)cc2nc(-c3cc4cccc(C(N)=O)c4n3CC3CC3)n(C)c12` [Example 184, 2-(5-((1R,4R,7R)-7-Amino-2-azabicyclo[2.2.1]heptane-2-carbonyl)-7-methoxy-1-methyl-1H-benzo[d]imidazol-2-yl)-1-(cyclopropylmethyl)-1H-indole-7-carboxamide], the IC50 under setting [2] was 74 nM.
As to `COc1cc(C(=O)N2C[C@H]3CC[C@@H]2[C@@H]3N)cc2nc(-c3cc4cccc(Nc5cn(C)nc5C)c4n3CC3CC3(Cl)Cl)n(C)c12` (stereo partly drawn) [Example 179, ((1R,4R,7R)-7-amino-2-azabicyclo[2.2.1]heptan-2-yl)(2-(1-((2,2-dichlorocyclopropyl)meth-yl)-7-((1,3-dimethyl-1H-pyrazol-4-yl)amino)-1H-indol-2-yl)-7-methoxy-1-methyl-1H-benzo[d]imidazol-5-yl)methanone], half-maximal inhibition under setting [1] (IC50) required 24 nM.
With `COc1cc(C(=O)N2C[C@H]3CC[C@@H]2[C@@H]3N)cc2nc(-c3cc4cc(C)ccc4n3CC3CC3)n(C)c12` [Example 153, ((1R,4R,7R)-7-amino-2-azabicyclo[2.2.1]heptan-2-yl)(2-(1-(cyclopropylmethyl)-5-methyl-1H-indol-2-yl)-7-methoxy-1-methyl-1H-benzo[d]imidazol-5-yl)methanone], the IC50 under setting [2] is 135 nM.
For `COc1cc(C(=O)N2C[C@H]3CC[C@@H]2[C@@H]3N)cc2nc(-c3cc4cccc(C[C@H]5CC[C@H](N)CC5)c4n3CC3CC3)n(C)c12` [Example 14, ((1R,4R,7R)-7-amino-2-azabicyclo[2.2.1]heptan-2-yl)(2-(7-(((trans)-4-aminocyclohexyl)methyl)-1-(cyclopropylmethyl)-1H-indol-2-yl)-7-methoxy-1-methyl-1H-benzo[d]imidazol-5-yl)methanone], the IC50 under setting [1] came to 38 nM.
Still for that read-out and setting: for `CCOC(=O)c1ccc(Nc2cccc3cc(-c4nc5cc(C(=O)N6CC7CCC6[C@@H]7N)cc(OC)c5n4C)n(CC4CC4)c23)cc1` (stereo partly drawn) [Example 162, ethyl 4-((2-(5-((7R)-7-amino-2-azabicyclo[2.2.1]heptane-2-carbonyl)-7-methoxy-1-methyl-1H-benzo[d]imidazol-2-yl)-1-(cyclopropylmethyl)-1H-indol-7-yl)amino)benzoate] the value was 98 nM.
